Source: article PMC7600679, “Benzoxazole-Based Metal Complexes to Reverse Multidrug Resistance in Bacteria” (Antibiotics, 2020)
pIC50: −log10 of the molar value. Where two headings read alike, the source gives them in different places.

How the values were obtained:
[1] = tested on: C. violaceum 026 sensor strain with AHL producer E. cloacae 31298; test: Quorum sensing inhibition (agar diffusion, violacein production); assay type: cell-based, Chromobacterium violaceum; details: disc with 10 μL of 1 mM stock; reduction of violacein zone
Description: (§1) The following bacterial strains were applied in the QS tests: C. violaceum 026 as sensor strain and E. cloacae 31298 isolated from clinical wound (used as N-acyl-homoserine lactone (AHL) producer); this strain induced pigment production by C. violaceum and is a model strain to study QS interactions.
LB* was applied for these experiments. The sensor strain C. violaceum 026 and the AHL producer strains E. cloacae 31298 were inoculated as parallel lines and incubated at room temperature for 24–48 h. The inhibition of bacterial communication was determined by the agar diffusion method. Filter paper discs (7.0 mm in diameter) were impregnated with 10 μL of stock solutions (1 mM) of the compounds in DMSO. The discs were placed between the parallel lines of the sensor and the AHL producer strains. The plates were kept at room temperature for another 24–48 h, and the interactions between the strains and compounds were determined as the reduction in the size of the zone of purple pigment (violacein) production in millimeters. PMZ was applied as a positive control.

E. coli AG100 A [2] = test: Minimum inhibitory concentration (broth microdilution, CLSI); assay type: cell-based, Escherichia coli; details: 18 h
Description: Wild-type E. coli K-12 AG100 strain (argE3 thi-1 rpsL xyl mtl Δ(gal-uvrB) supE44) expressing the AcrAB TolC EP at its basal level and its AcrAB-TolC deleted mutant E. coli K-12 AG100 A strain. The strains were donated by Prof. Dr. Hiroshi Nikaido (Department of Molecular and Cell Biology and Chemistry, University of California, Berkeley, CA, USA).
(§2) The minimum inhibitory concentrations (MICs) of compounds were determined in 96-well plates based on the Clinical and Laboratory Standard Institute guidelines (CLSI guidelines). The compounds were diluted in 100 μL of MHB. Then, 10^−4 dilution of an overnight bacterial culture in 100 μL of medium were added to each well, with the exception of the medium control wells.

E. coli AG100 [3] = test: Resistance modulation (MIC reduction) assay with CIP and TET; assay type: cell-based, Escherichia coli; details: compound at ¼ MIC; for CIP MIC in combination with compounds: value is the MIC of ciprofloxacin
Description: (§3) The resistance modulation effects of compounds with ciprofloxacin (CIP) and tetracycline (TET) antibiotics were evaluated by the MIC reduction method on the Gram-negative E. coli AG100, AG100 A, and the Gram-positive S. aureus ATCC and MRSA strains.
(§4) The chemosensitizing activity of benzoxazole-type ligands and their metal complexes was determined based on the MIC values of the antibiotics in the presence of sub-inhibitory concentrations of the compounds (¼ MIC) in both Gram-negative and Gram-positive strains. The MICs were determined in strains by the two-fold broth microdilution method in 96-well plates, using serial dilutions of TET and CIP. The first four rows contained two-fold dilutions of antibiotics, and combinations of the TET and CIP and tested compounds were transferred into the last four rows. The 10^−4 dilution of an overnight bacterial culture in 50 μL of MHB was then measured to each well, except for the medium control wells. The plates were kept at 37 °C for 18 h. MIC values of antibiotics and their combination with tested compounds were detected by visual inspection.

S. aureus MRSA 272123 = test: as above; assay type: cell-based, Staphylococcus aureus; details: for Reduction of the MIC value of CIP: compound at a quarter of the MIC; for CIP MIC in combination with compounds: compound at ¼ MIC, value is the MIC of ciprofloxacin
Description: as §3, §4

E. coli AG100 A [4] = test: Real-time ethidium bromide accumulation (efflux pump inhibition); assay type: cell-based, Escherichia coli; details: compounds at ¼ MIC, EB 1 μg/mL, minute 30
Description: (§5) Since multidrug resistance EPs are very important factors contributing to multidrug resistance (MDR) in both Gram-positive and Gram-negative bacteria, the inhibition of these pumps could reverse the resistant phenotype and restore the activity of antibiotics. The effect of compounds on ethidium bromide (EB) accumulation was determined by the automated EB method. This assay was used to determine how much of the fluorescent dye and pump substrate EB was accumulated by the bacterial cells in the presence of the tested compounds. The real-time accumulation of EB was monitored for 30 min in both S. aureus and E. coli strains.
(§6) The accumulation of the efflux pump substrate EB was monitored by the automated EB method using a LightCycler real-time thermocycler (LightCycler 1.5, Roche, Indianapolis, IN, USA). An aliquot of an overnight culture of the S. aureus strains in TSB medium was inoculated into fresh TSB medium, and it was incubated until it reached an optical density (OD) of 0.6 at 600 nm. In the case of E. coli strains, the medium applied in the assay was LB broth; the preparation of the inoculum was similar to the one of S. aureus. The cells were washed with phosphate buffered saline (PBS; pH 7.4) and centrifuged at 13,000 × g for 3 min, the pellets were re-suspended in PBS (pH 7.4), and the OD was calibrated to 0.6 at 600 nm. The compounds were measured at ¼ MIC concentration (in double-concentrated form) to the EB solution in PBS. The final concentration of EB was determined according to the MIC and the fluorescent signal produced by this amount of EB. In the case of all strains, the concentration of EB was 1 μg/mL. Then, 10 μL of the EB solution plus the compound were pipetted into standard glass capillary tubes of 20 µL maximum volume (Roche, Indianapolis, USA), and 10 μL of bacterial culture (OD of 0.6 at 600 nm) were transferred to the capillaries. The capillaries containing the samples were placed into the carousel, and the fluorescence was monitored at the FL-2 channel in every minute on a real-time basis.
(§7) Based on the data obtained, the relative fluorescence index (RFI) of the last time point (minute 30) was determined as follows:RFI = (RFtreated − RFuntreated)/RFuntreated(1) where RFtreated is the relative fluorescence (RF) at the last time point of the EB retention curve in the presence of an inhibitor, and RFuntreated is the relative fluorescence at the last time point of the EB retention curve of the untreated control having the solvent control (DMSO).

E. coli AG100 [5] = test: Minimum inhibitory concentration (broth microdilution, CLSI); assay type: cell-based, Escherichia coli; details: E. coli AG100, 18 h, visual inspection, read-out: MIC
Description: The strains were donated by Prof. Dr. Hiroshi Nikaido (Department of Molecular and Cell Biology and Chemistry, University of California, Berkeley, CA, USA).
as §2

E. coli AG100 [6] = test: Real-time ethidium bromide accumulation (efflux pump inhibition, AcrAB-TolC); assay type: cell-based, Escherichia coli; details: compounds at ¼ MIC, EB 1 μg/mL, minute 30
Description: as §5, §6, §7

S. aureus 272123 (MRSA) [7] = test: Real-time ethidium bromide accumulation (efflux pump inhibition); assay type: cell-based, Staphylococcus aureus; details: compounds at ¼ MIC (3 at 12.5 µM), VER at 25 µM, EB 1 μg/mL, minute 30
Description: as §5, §6, §7

S. aureus ATCC 25923 = test: as above; assay type: cell-based, Staphylococcus aureus; details: compounds at ¼ MIC, EB 1 μg/mL, minute 30
Description: as §5, §6, §7

[8] = tested on: MRC-5 human embryonal lung fibroblast cell line; test: Cytotoxicity assay (MTT); assay type: cell-based
Description: The MRC-5 human embryonic lung fibroblast cell line (ATCC CCL-171; provider: LGC Promochem, Teddington, UK) was used in the experiments. The cells were cultivated in Eagle’s Minimal Essential Medium (EMEM; Sigma–Aldrich, St. Louis, MO, USA), supplemented with 1% non-essential amino acid mixture, 10% heat-inactivated fetal bovine serum, 2 mM L-glutamine, 1 mM Na-pyruvate, nystatin, and a penicillin–streptomycin mixture in concentrations of 100 U/L and 10 mg/L, respectively. The supplementary components were obtained from Sigma–Aldrich, St. Louis, MO, USA. The cell culture was kept in a humidified atmosphere (5% CO2, 95% air) at 37 °C.
The activity of increasing concentrations of the compounds on cell growth was determined in 96-well flat-bottomed microtiter plates by two-fold serial dilutions of the benzoxazole derivatives. The adherent human embryonic lung fibroblast cells (10^4/well) was seeded in EMEM medium in 96-well microtiter plates for 4 h prior to the assay. The serial dilutions of the compounds were made in a separate plate, and then pipetted to the plates containing the MRC-5 cell line. Culture plates were incubated at 37 °C for 24 h; at the end of the incubation period, 20 μL of MTT (3-(4,5-dimethylthiazol-2-yl)-2,5-diphenyltetrazolium bromide) solution (from a 5 mg/mL stock solution) was measured to each well. After the incubation at 37 °C for 4 h, 100 μL of sodium dodecyl sulfate (SDS) solution (10% SDS in 0.01 M HCl) was added to each well to dissolve the formazan crystals and the samples were further incubated at 37 °C overnight. Cell growth was calculated by measuring the OD at 540 nm (ref. 630 nm) with a Multiscan EX ELISA reader. The cytotoxicity was expressed as IC50 values, defined as the inhibitory dose that reduces the growth of the cells exposed to the tested compounds by 50%.

S. aureus 272123 (MRSA) [9] = test: Minimum inhibitory concentration (broth microdilution, CLSI); assay type: cell-based, Staphylococcus aureus; details: 18 h, visual inspection
Description: (§8) The compounds were further investigated against two Gram-positive strains, S. aureus ATCC 25923 (MSSA), used as the methicillin susceptible reference strain, and the methicillin- and ofloxacin-resistant S. aureus 272123 clinical isolate (MRSA), which was given by Prof. Dr. Leonard Amaral (Institute of Hygiene and Tropical Medicine, Lisbon, Portugal).
as §2

[10] = tested on: Staphylococcus aureus ATCC 25923; test: as above; assay type: cell-based; details: S. aureus ATCC 25923, 18 h, visual inspection
Description: as §8, §2

[11] = tested on: Chromobacterium violaceum 026; test: as above; assay type: cell-based; details: C. violaceum 026
Description: as §1, §2

[12] = tested on: Enterobacter cloacae 31298; test: as above; assay type: cell-based; details: E. cloacae 31298
Description: as §1, §2

[13] = E. coli AG100 A (AcrAB-TolC deleted), visual inspection

CC(CN1c2ccccc2Sc2ccccc21)N(C)C (stereo not drawn) [PMZ, promethazine, reference compound]
Inhibition zone (quorum sensing) [1]: 16 mm

[Cu+2].[O-]C(=Cc1nc2ccccc2o1)C(F)(F)F.[O-]C(=Cc1nc2ccccc2o1)C(F)(F)F [Compound 7]
MIC (E. coli AG100 A [2]; [13]): 12.5 µM
CIP MIC in combination with compounds (E. coli AG100 [3]): 0.016 µM
Reduction of the MIC value of CIP (S. aureus MRSA 272123): 2 fold
CIP MIC in combination with compounds (S. aureus MRSA 272123): 6.25 µM
Relative fluorescence index (RFI) (E. coli AG100 A [4]): 0.11
MIC (E. coli AG100 [5]): >100 µM
Relative fluorescence index (RFI) (E. coli AG100 [6]): −0.06
Relative fluorescence index (RFI) (S. aureus 272123 (MRSA) [7]): −0.01
Relative fluorescence index (RFI) (S. aureus ATCC 25923): 0.12
Cytotoxic effect (class in words) ([8]; 24 h): weak (IC50: 61–100)
pIC50 ([8]; 24 h): 4.12
MIC (S. aureus 272123 (MRSA) [9]): 3.125 µM
MIC [10]: 12.5 µM
MIC [11]: >100 µM
MIC [12]: >100 µM

[O-]C(=Cc1nc2ccccc2o1)C(F)(F)F.[O-]C(=Cc1nc2ccccc2o1)C(F)(F)F.[Zn+2] [Compound 4]
MIC (E. coli AG100 A [2]; [13]): 25 µM
Relative fluorescence index (RFI) (E. coli AG100 A [4]): −0.17
MIC (E. coli AG100 [5]): 25 µM
Relative fluorescence index (RFI) (E. coli AG100 [6]): −0.10
Relative fluorescence index (RFI) (S. aureus 272123 (MRSA) [7]): −0.11
Relative fluorescence index (RFI) (S. aureus ATCC 25923): −0.03
Cytotoxic effect (class in words) ([8]; 24 h): strong (IC50: 0–30)
pIC50 ([8]; 24 h): 4.76
MIC (S. aureus 272123 (MRSA) [9]): 6.25 µM
MIC [10]: 12.5 µM
MIC [11]: >100 µM
MIC [12]: >100 µM
Inhibition zone (quorum sensing) [1]: 47 mm

FC(F)(F)C1=Cc2oc3ccccc3[n+]2[Mg-2]2([O]1)[O]C(C(F)(F)F)=Cc1oc3ccccc3[n+]12 [Compound 9]
MIC (E. coli AG100 A [2]; Escherichia coli, AG100A): 25 µM
Reduction of the MIC of CIP (E. coli AG100 [3]): 2 fold
CIP MIC in combination with compounds (E. coli AG100 [3]): 0.008 µM
Reduction of the MIC value of CIP (S. aureus MRSA 272123): 2 fold
CIP MIC in combination with compounds (S. aureus MRSA 272123): 6.25 µM
MIC (E. coli AG100 [5]; Escherichia coli): 50 µM
Cytotoxic effect (class in words) ([8]; 24 h): no (IC50 > 100 µM)
pIC50 ([8]; Homo sapiens, MRC5, 24 h): < 4.00
MIC (S. aureus 272123 (MRSA) [9]; Staphylococcus aureus): 6.25 µM
MIC ([10]; Staphylococcus aureus, ATCC25923): 25 µM
MIC ([11]; Chromobacterium violaceum): > 100 µM
MIC ([12]; Enterobacter cloacae): > 100 µM

O.O.[Ni+2].[O-]C(=Cc1nc2ccccc2o1)C(F)(F)F.[O-]C(=Cc1nc2ccccc2o1)C(F)(F)F [Compound 8]
MIC (E. coli AG100 A [2]; [13]): 25 µM
Reduction of the MIC of CIP (E. coli AG100 [3]): 2 fold
CIP MIC in combination with compounds (E. coli AG100 [3]): 0.008 µM
Reduction of the MIC value of CIP (S. aureus MRSA 272123): 2 fold
CIP MIC in combination with compounds (S. aureus MRSA 272123): 6.25 µM
Relative fluorescence index (RFI) (E. coli AG100 A [4]): −0.15
MIC (E. coli AG100 [5]): 50 µM
Relative fluorescence index (RFI) (E. coli AG100 [6]): 0.11
Relative fluorescence index (RFI) (S. aureus 272123 (MRSA) [7]): −0.01
Relative fluorescence index (RFI) (S. aureus ATCC 25923): −0.20
Cytotoxic effect (class in words) ([8]; 24 h): strong (IC50: 0–30)
pIC50 ([8]; 24 h): 4.91
MIC (S. aureus 272123 (MRSA) [9]): 6.25 µM
MIC [10]: 25 µM
MIC [11]: >100 µM
MIC [12]: >100 µM
